Data on 2 compounds can be found in US20030040485A1, “alpha/beta-adrenoceptors blockers and angiotensin converting enzyme inhibitors derived from hydroxyphenyl carboxylic acid and alcohol” (priority 2001, published 2003).

SMILES strings stand for the structures.

In test [1] the target is T1, angiotensin converting enzyme (ACE) (Rattus norvegicus, UniProt P47820).
T1 construct: Centrifuged 250-300 mg lung tissue; from tissue; host or cells: rat lung membrane fraction
T1 sequence (P47820 36-1313): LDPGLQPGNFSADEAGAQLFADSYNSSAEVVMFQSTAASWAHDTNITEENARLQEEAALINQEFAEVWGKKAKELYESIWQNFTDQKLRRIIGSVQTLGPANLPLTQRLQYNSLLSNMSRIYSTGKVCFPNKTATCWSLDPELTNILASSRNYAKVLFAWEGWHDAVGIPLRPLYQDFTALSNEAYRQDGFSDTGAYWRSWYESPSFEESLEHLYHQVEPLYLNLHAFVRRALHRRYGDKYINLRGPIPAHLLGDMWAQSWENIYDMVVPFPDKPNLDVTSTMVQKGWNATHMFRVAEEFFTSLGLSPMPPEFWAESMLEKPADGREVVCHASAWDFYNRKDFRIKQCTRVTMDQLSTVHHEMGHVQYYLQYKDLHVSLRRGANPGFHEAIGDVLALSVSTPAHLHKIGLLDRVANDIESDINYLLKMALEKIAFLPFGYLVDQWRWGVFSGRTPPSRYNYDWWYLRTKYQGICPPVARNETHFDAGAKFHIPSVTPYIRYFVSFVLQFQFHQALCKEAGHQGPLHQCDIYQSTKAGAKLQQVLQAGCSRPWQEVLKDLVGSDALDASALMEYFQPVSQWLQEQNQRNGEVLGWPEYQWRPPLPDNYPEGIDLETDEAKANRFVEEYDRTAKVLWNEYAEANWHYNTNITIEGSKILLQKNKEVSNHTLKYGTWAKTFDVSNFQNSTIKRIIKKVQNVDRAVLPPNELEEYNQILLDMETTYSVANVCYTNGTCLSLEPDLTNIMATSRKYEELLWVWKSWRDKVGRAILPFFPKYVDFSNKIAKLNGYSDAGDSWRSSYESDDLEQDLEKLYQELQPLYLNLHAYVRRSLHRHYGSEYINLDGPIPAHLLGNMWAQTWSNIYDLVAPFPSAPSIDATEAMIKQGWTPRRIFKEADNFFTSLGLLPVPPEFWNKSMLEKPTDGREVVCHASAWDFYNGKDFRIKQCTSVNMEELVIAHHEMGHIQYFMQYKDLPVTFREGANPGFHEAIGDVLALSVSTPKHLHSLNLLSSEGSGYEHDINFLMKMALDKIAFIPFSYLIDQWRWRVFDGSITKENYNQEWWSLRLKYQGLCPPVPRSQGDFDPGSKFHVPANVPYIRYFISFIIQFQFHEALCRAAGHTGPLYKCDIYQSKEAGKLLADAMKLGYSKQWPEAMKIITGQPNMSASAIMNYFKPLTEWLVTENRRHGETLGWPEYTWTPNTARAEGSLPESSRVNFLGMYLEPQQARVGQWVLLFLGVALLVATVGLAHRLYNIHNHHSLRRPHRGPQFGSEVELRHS
As to the kind of experiment: ACE activity value on tissue (rat lung membrane, Hip-His-Leu, fluorometric). Format: biochemical. As to conditions: mean of three samples. The procedure: Centrifuged 250-300 mg lung tissue, 3 ml extracted liquid (10 mmol/L HEPES, 125 mmol/L NaCl, pH7.4) under 12000 g for 20 minutes at 4° C. by Teflon-glass homogenizer, the cell membrane was obtained. The 3 ml homogenized liquid was added into twice, before and after centrifuged. Then the Lowry's method was adopted to determine the protein content in the membrane. Mixing 15 minute of liquid and 30 mmol/L Hip-His-Leu solution at 37° C. Fluorometric was used to determine the Hippurate content. test compounds (10^−8M, 10^−7M, 10^−6M) dissolved in PBS normal saline and used as control group. Then ACE activity inhibition rate was determined.

Test [2] relates to β1-adrenoceptor (right atrium). As to the kind of experiment: β1-adrenoceptor antagonism, spontaneously beating right atrium, pA2 vs L-isoproterenol. Conditions: for β1/β2 Ratio: antilogarithm of difference between mean pA2 of right atrium and trachea; for β1 pA2 value, Right atrium: Schild plot, mean ± SEM of six to eight experiments.
Procedure: The spontaneously-beating right atria was clipped on both end by heart shaped clips, where one end was fixed at the bottom of 10 ml of tissue bath made of physiological saline solution, and temperature maintained at 37° C. The other end of the atria was connected to a force transducer, and isometric contractions and beating rate of the right atria were recorded by COULBOURN AT-High-Speed VideoFigure. After the samples were given 250 mg of contractions and reach equilibrium the following experiments were carried out:
When the spontaneously beating rate of right atria reached a certain stability, cumulative administration of L-isoproterenol from 1×10^−10˜3×10^−10 M caused the heart rate to increase continuously, and a cumulative dose-response curve was obtained. Then the L-isoproterenol was thoroughly washed off with Kreb's solution to recover the right atria's heart rate stability. After the equilibrum was reached again for at least 60 minutes, different concentrations (10^−7, 10^−6, 10^−5 M) of compounds were added. 30 minutes later, cumulative administration of L-isoproterenol from 1×10^−10˜3×10^−10 M were carried out again, and another new cumulative dose-response curve was obtained. Administration of L-isoproterenol started from concentration 1×10^−10 M, and the concentration was raised 0.5 log each time for a total of six times. Cumulative administration interval was when the previous concentration reached its greatest effect, the next concentration would be immediately given. […] In other groups of rats, after separate administration of test compounds, their pA2 values were obtained.
pA2=−Log KB Log(DRADJ−1)=n log[B]−LogKB
The test system of test [3] is blood pressure of normotensive male Wistar rats. As to the kind of experiment: Heart rate and blood pressure in living rat (i.v., anaesthetized). Conditions: maximal decrease, 2 mg/kg i.v. Type of test: in vivo. From the text: Normotensive Male Wistar rats (NTRs), weighing 200˜300 g were abdominal anaesthetized with pentobarbital sodium. Tracheal was cannulated to maintain normal respiration. Polyethylene tube was inserted into the left femoral vein to facilitate drug administration. A 3-way stopcock was used, with one end comnected to a syringe for drug injection, while the other end was connected to the syringe filled with physiological saline. The latter was used to prevent residual drugs in the polyethylene tube after injection, which would affect experimental accuracy.
The right femoral artery was also inserted with polyethylene, and a 3-way stopcock was used tool, where one end was connected to heparin solution to prevent embolism. The other end was comnected to a Disposable Diaphragm Dome, TA1019, and linked to a pressure transducer (Model P10EZ; Spectramed, Oxnard, Calif., USA). Through an amplifier, a recorder recorded the overall and average arterial pressure; heart rate to evaluate the effect of drug on blood pressure and heart rate. Different concentrations 0.1, 1.0, 2.0, 3.0 mg/kg of test compounds were given to the rats via femoral vein and the differences in the heart rate and blood pressure were compared. Table 2 shown maximal decrease of blood pressure affect of compounds after given 2.0 mg/kg test compounds to the rats.

The target of test [4] is β1-adrenoceptor (left atrium) (Rattus norvegicus, UniProt P18090). As to the kind of experiment: β1-adrenoceptor antagonism, left atrium, pA2. As to conditions: Schild plot, mean ± SEM of six to eight experiments.
Sequence of β1-adrenoceptor (left atrium) (P18090 whole entry): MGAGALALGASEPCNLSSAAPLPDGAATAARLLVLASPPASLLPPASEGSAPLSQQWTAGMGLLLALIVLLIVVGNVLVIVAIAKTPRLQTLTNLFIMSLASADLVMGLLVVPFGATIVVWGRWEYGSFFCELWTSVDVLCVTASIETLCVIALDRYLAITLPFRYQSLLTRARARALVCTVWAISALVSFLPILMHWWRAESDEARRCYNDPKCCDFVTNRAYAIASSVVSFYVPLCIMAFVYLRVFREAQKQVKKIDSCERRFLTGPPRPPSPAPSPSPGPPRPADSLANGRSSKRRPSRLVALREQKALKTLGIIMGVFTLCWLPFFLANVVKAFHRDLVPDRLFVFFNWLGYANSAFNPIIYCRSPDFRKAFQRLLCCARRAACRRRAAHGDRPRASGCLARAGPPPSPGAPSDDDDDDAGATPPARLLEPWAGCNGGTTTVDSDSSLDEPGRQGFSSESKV

Consider `CCOC(=O)C(CCc1ccccc1)NC(C)C(=O)N1CCCC1C(=O)OCc1ccc(OCC(O)CNC(C)(C)C)c(OC)c1` (centres unmarked) [compound 7, Vanynolpril], for which the “Inhibitory activity of ACE, In Rat lung” value is 81% in test [1] (10^−6M), 68% in test [1] (10^−7M) and 31% in test [1] (10^−8M). Further, the “β1/β2 Ratio” value in test [2] stood at 1.9. In addition, the “β1 pA2 value, Right atrium” value in test [2] stood at 5.87. Moreover, the “Decrease of blood pressure” value in test [3] amounted to 55 ± 6.3 mmHg. The “β1 pA2 value, Left atrium” value in test [4] amounted to 5.78.

With `CCOC(=O)C(CCc1ccc(OCC(O)CNCCOc2ccccc2OC)cc1)NC(C)C(=O)N1CCCC1C(=O)O` (mixture of isomers) [compound 6, Labetapril], the “Inhibitory activity of ACE, In Rat lung” value in test [1] (10^−6M) came out at 84%; in test [1] (10^−7M), 72%; in test [1] (10^−8M) it was 33%. In test [2], the “β1/β2 Ratio” value turned out to be 1.4. In addition, in test [2], the “β1 pA2 value, Right atrium” value is on record as 5.41. The “Decrease of blood pressure” value in test [3] is listed as 65 ± 9.2 mmHg. Moreover, the “β1 pA2 value, Left atrium” value in test [4] is given as 5.31.
